The source of these data is patent US8889671B2, “Compounds and methods for treating bacterial infections” (AstraZeneca AB, priority 2013, dated 2014).

pIC50: −log10 of the molar value. Converted amounts (≈) assume the structure as drawn. Like-named read-outs stand apart in the source and are kept apart here. Where only a bound is given, the exact number is not on record here.

In assay [1] the test system is Staphylococcus aureus. Nature of the assay: Susceptibility testing (MIC) Assay 1, broth microdilution. In kind it is cell-based. The settings on record: Staphylococcus aureus.
For assay [2], the system named is Streptococcus pneumoniae. The assay is described as above. In kind it is cell-based.
The test system of assay [3] is Streptococcus pyogenes. The description is as above. It is filed as cell-based. The settings on record: Streptococcus pyogenes, in vivo strain, read-out: Spy MIC.
The subject of assay [4] is Escherichia coli. Nature of the assay: Susceptibility testing (MIC) Assay 2, broth microdilution. In kind it is cell-based. For orientation: Broth dilution looks for growth in wells or tubes with falling amounts of substance.
Assay [5] deals with Haemophilus influenzae. The assay is described as above. It is filed as cell-based.
For assay [6], the system named is Klebsiella pneumoniae. Described as above. It is filed as cell-based.
For assay [7], the system named is Pseudomonas aeruginosa. The assay is described as above. The settings on record: PAO1, read-out: Pae MIC. It is filed as cell-based.
The target in assay [8] is Escherichia coli DNA gyrase A/B tetramer (Escherichia coli (strain K12), UniProt P0AES4+P0AES6). Put plainly: DNA gyrase supercoiling activity fluorescence polarisation assay. It is filed as biochemical. The settings on record: Eco Gyr FP Mean IC50, E. coli DNA gyrase supercoiling, 0.3 mM ATP. The method in brief:
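Relaxed triplex-forming plasmid (130 micrograms/mL) supercoiled by 5 nM gyrase A/B tetramer in Tris-HCl pH 7.5 buffer with 4 mM MgCl2 and 0.3 mM ATP, ~30 min, ambient temperature. Quenched with 5′-BODIPY-FL triplex probe at pH 3.5; fluorescence anisotropy read after 60 min. IC50 by nonlinear regression against two control reactions.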
(In general: Polarisation of emitted light reports the rotation of a fluorescent probe.)

The subject of assay [9] is Neisseria gonorrhoeae. Nature of the assay: MIC against 100 N. gonorrhoeae isolates, CLSI reference agar dilution. In kind it is cell-based. The settings on record: all 100 N. gonorrhoeae isolates.
Setting [10] is: Staphylococcus aureus in vivo strain, MSQS, read-out: Sau(d) MIC.
The mark [11] stands for this setting: in vivo strain, MRQR, read-out: Sau(e) MIC.
Where [12] appears, read: in vivo strain (footnote b), read-out: Spn(b) MIC.
[13] abbreviates: in vivo strain (footnote c), read-out: Spn(c) MIC.
Setting [14] is: ATCC51907, Haemophilus influenzae, ATCC 51907, in vivo strain, read-out: Hin MIC.
Where [15] appears, read: clinical isolate, mucoid, read-out: Kpn MIC.
Where [16] appears, read: ATCC29213, Staphylococcus aureus, in vivo strain, ATCC 29213, read-out: Sau(d) MIC.
[17] abbreviates: MRSA, in vivo strain, MRSA, read-out: Sau(f) MIC.
[18] abbreviates: ATCC49619, Streptococcus pneumoniae, ATCC 49619, read-out: Spn(c) MIC.
Setting [19] is: in vivo strain, read-out: Spn(b) MIC.
The mark [20] stands for this setting: ATCC25922, Escherichia coli, in vivo strain, ATCC 25922, read-out: Eco(b) MIC.
Where [21] appears, read: ATCC35218, Escherichia coli, ATCC 35218, read-out: Eco(c) MIC.
The mark [22] stands for this setting: ATCC49247, Haemophilus influenzae, ATCC 49247, read-out: Hin MIC.
The mark [23] stands for this setting: ATCC700603, ATCC 700603, read-out: Kpn(e) MIC.
Setting [24] is: clinical isolate, mucoid, read-out: Kpn(d) MIC.

For `C[C@@H]1CN2c3c(cc4c(N5C(=O)OC[C@@H]5[C@H](O)CO)noc4c3F)CC3(C(=O)NC(=O)NC3=O)[C@H]2[C@H](C)O1` [Example 73], the MIC amounted to 25 µM in assay [1] (setting [10]); 100 µM in assay [1] (setting [11]); 25 µM in [1] (serum, read-out: Sau(f) MIC); 0.78 µM in assay [2] (setting [12]); 3.1 µM in assay [2] (setting [13]); 0.78 µM in assay [3] (Streptococcus pyrgenes). For the same molecule, the MIC in [4] (K12, read-out: Eco MIC) was above 200 µM; in [5] (setting [14]), 6.2 µM; in assay [6] (setting [15]), above 200 µM; in [7], above 200 µM. Further, the pIC50 – broadly, the IC50 on a negative log10 scale, so that one unit is a factor of ten – in assay [8] was 6.47.

For the molecule `C[C@@H]1CN2c3c(cc4c(N5C(=O)OC[C@@H]5C=NO)noc4c3F)CC3(C(=O)NC(=O)NC3=O)[C@H]2[C@H](C)O1` [Example 74, (2R,4S,4aS)-11-fluoro-8-{(4S)-4-[(hydroxyimino)methyl]-2-oxo-1,3-oxazolidin-3-yl}-2,4-dimethyl-1,2,4,4a-tetrahydro-2′H,6H-spiro[1,4-oxazino[4,3-a][1,2]oxazolo[4,5-g]quinoline-5,5′-pyrimidine]-2′,4′,6′(1′H,3′H)-trione], the MIC in assay [1] (setting [10]) stood at 6.2 µM; in assay [1] (setting [11]), 12 µM; in assay [1] (serum, read-out: Sau(f) MIC) it was 12 µM; in assay [2] (setting [12]), 1.6 µM; in [2] (setting [13]) it was 1.6 µM; in assay [3] (Streptococcus pyrgenes), 1.6 µM. Moreover, the MIC in assay [4] (K12, read-out: Eco MIC) is 100 µM; in assay [5] (setting [14]), 0.78 µM; in [6] (setting [15]), above 200 µM; in [7] it was above 200 µM. This molecule showed a pIC50 in assay [8] of 6.33.

`C[C@@H]1CN2c3c(cc4c(N5C[C@H](C#N)OC5=O)noc4c3F)CC3(C(=O)NC(=O)NC3=O)[C@H]2[C@H](C)O1` [Example 75, (5R)-3-[(2R,4S,4aS)-11-Fluoro-2,4-dimethyl-2′,4′,6′-trioxo-1,1′,2,3′,4,4′,4a,6′-octahydro-2′H,6H-spiro[1,4-oxazino[4,3-a][1,2]oxazolo[4,5-g]quinoline-5,5′-pyrimidin]-8-yl]-2-oxo-1,3-oxazolidine-5-carbonitrile]: the MIC in assay [1] (setting [10]) is 0.28 µM; in assay [1] (setting [11]), 2.2 µM; in [1] (serum, read-out: Sau(f) MIC) it was 0.39 µM; in assay [2] (setting [12]) it was 0.78 µM; in assay [2] (setting [13]), 1.62 µM; in assay [3] (Streptococcus pyrgenes), 0.55 µM. The MIC is 100 µM in assay [4] (K12, read-out: Eco MIC); 0.78 µM in [5] (setting [14]); above 200 µM in assay [6] (setting [15]); above 200 µM in assay [7]. Besides, the pIC50 in assay [8] was 6.15.

On to `C[C@@H]1CN2c3c(cc4c(N5C[C@@H](C#N)OC5=O)noc4c3F)CC3(C(=O)NC(=O)NC3=O)[C@H]2[C@H](C)O1` [Example 76, (5S)-3-[(2R,4S,4aS)-11-fluoro-2,4-dimethyl-2′,4′,6′-trioxo-1,1′,2,3′,4,4′,4a,6′-octahydro-2′H,6H-spiro[1,4-oxazino[4,3-a][1,2]oxazolo[4,5-g]quinoline-5,5′-pyrimidin]-8-yl]-2-oxo-1,3-oxazolidine-5-carbonitrile], for which the MIC in assay [1] (setting [10]) was found to be 0.39 µM; in assay [1] (setting [11]), 1.6 µM; in [1] (serum, read-out: Sau(f) MIC), 0.78 µM; in assay [2] (setting [12]), 0.39 µM; in assay [2] (setting [13]), 0.78 µM; in assay [3] (Streptococcus pyrgenes), 0.39 µM. In addition, the MIC in [4] (K12, read-out: Eco MIC) was 50 µM; in [5] (setting [14]) it was 0.78 µM; in assay [6] (setting [15]), above 200 µM; in assay [7] it was above 200 µM. In [8], this molecule showed a pIC50 of 6.26.

With `C[C@@H]1CN2c3c(cc4c(N5C(=O)OC[C@@H]5[C@@H](C)O)noc4c3F)CC3(C(=O)NC(=O)NC3=O)[C@H]2[C@H](C)O1` [Example 77], the MIC in assay [1] (setting [10]) was 3.1 µM; in assay [1] (setting [11]) it was 12 µM; in assay [1] (serum, read-out: Sau(f) MIC) it was 6.2 µM; in assay [2] (setting [12]), 0.78 µM; in [2] (setting [13]), 0.78 µM; in assay [3] (Streptococcus pyrgenes), 0.78 µM. The MIC in assay [4] (K12, read-out: Eco MIC) was 200 µM; in assay [5] (setting [14]), 0.78 µM; in assay [6] (setting [15]), above 200 µM; in assay [7], above 200 µM. In [8], this molecule had a pIC50 of 6.28.

In the case of `C[C@@H]1CN2c3c(cc4c(N5C(=O)O[C@H](C)[C@@H]5CF)noc4c3F)CC3(C(=O)NC(=O)NC3=O)[C@H]2[C@H](C)O1` [Example 78, (2R,4S,4aS)-11-Fluoro-8-((4R,5R)-4-(fluoromethyl)-5-methyl-2-oxooxazolidin-3-yl)-2,4-dimethyl-2,4,4a,6-tetrahydro-1H,1′H-spiro[isoxazolo[4,5-g][1,4]oxazino[4,3-a]quinoline-5,5′-pyrimidine]-2′,4′,6′(3′H)-trione], the MIC in [1] (setting [16]) is 1 µg/mL; in [1] (setting [17]), 1 µg/mL; in [1] (setting [11]) it was 2 µg/mL; in [2] (setting [18]), 2 µg/mL; in assay [2] (setting [19]), 2 µg/mL; in [3] (Streptococcus pyrogenes) it was 1 µg/mL. Moreover, the MIC in assay [4] (setting [20]) was 16 µg/mL; in assay [4] (setting [21]) it was 32 µg/mL; in [5] (setting [22]), 2 µg/mL; in assay [6] (setting [23]) it was above 64 µg/mL; in assay [6] (setting [24]) it was above 64 µg/mL; in [7] (Pseudomonoas aeruginosa), above 64 µg/mL. The same molecule gave a pIC50 in assay [8] of 6.36.

On to `COC[C@H]1[C@@H](C)OC(=O)N1c1noc2c(F)c3c(cc12)CC1(C(=O)NC(=O)NC1=O)[C@H]1[C@H](C)O[C@H](C)CN31` [Example 79, (2R,4S,4aS)-11-fluoro-8-((4S,5R)-4-(methoxymethyl)-5-methyl-2-oxooxazolidin-3-yl)-2,4-dimethyl-2,4,4a,6-tetrahydro-1H,1′H-spiro[isoxazolo[4,5-g][1,4]oxazino[4,3-a]quinoline-5,5′-pyrimidine]-2′,4′,6′(3′H)-trione], for which the MIC in [1] (setting [16]) is 1 µg/mL; in assay [1] (setting [17]) it was 1 µg/mL; in assay [1] (setting [11]) it was 2 µg/mL; in [2] (setting [18]), 1 µg/mL; in [2] (setting [19]), 2 µg/mL; in assay [3] (Streptococcus pyrogenes) it was 1 µg/mL. The MIC in [4] (setting [20]) is 32 µg/mL; in assay [4] (setting [21]), 64 µg/mL; in assay [5] (setting [22]), 0.5 µg/mL; in [6] (setting [23]), above 64 µg/mL; in [6] (setting [24]) it was above 64 µg/mL; in assay [7] (Pseudomonoas aeruginosa) it was above 64 µg/mL. In assay [8], this molecule gave a negative-log IC50 (pIC50) below 5.68.

Consider `COC[C@@H]1[C@@H](C)OC(=O)N1c1noc2c(F)c3c(cc12)CC1(C(=O)NC(=O)NC1=O)[C@H]1[C@H](C)O[C@H](C)CN31` [Example 80, (2R,4S,4aS)-11-fluoro-8-((4R,5R)-4-(methoxymethyl)-5-methyl-2-oxooxazolidin-3-yl)-2,4-dimethyl-2,4,4a,6-tetrahydro-1H,1′H-spiro[isoxazolo[4,5-g][1,4]oxazino[4,3-a]quinoline-5,5′-pyrimidine]-2′,4′,6′(3′H)-trione], for which the MIC in [1] (setting [16]) is 16 µg/mL; in [1] (setting [17]) it was 16 µg/mL; in assay [1] (setting [11]), 32 µg/mL; in assay [2] (setting [18]), 32 µg/mL; in [2] (setting [19]) it was 64 µg/mL; in [3] (Streptococcus pyrogenes), 16 µg/mL. Moreover, the MIC in assay [4] (setting [20]) was above 64 µg/mL; in [4] (setting [21]), above 64 µg/mL; in assay [5] (setting [22]), 1 µg/mL; in [6] (setting [23]) it was above 64 µg/mL; in [6] (setting [24]), above 64 µg/mL; in [7] (Pseudomonoas aeruginosa), above 64 µg/mL. The pIC50 in assay [8] was 6.77.

`CC[C@H]1OC(=O)[C@H](C)[C@@H](O[C@H]2C[C@@](C)(OC)[C@@H](O)[C@H](C)O2)[C@H](C)[C@@H](O[C@@H]2O[C@H](C)C[C@H](N(C)C)[C@H]2O)[C@](C)(O)C[C@@H](C)CN(C)[C@H](C)[C@@H](O)[C@]1(C)O` [azithromycin, reference compound]: the MIC50 – broadly, the lowest concentration that inhibits either 50% of growth or 50% of the strains tested, depending on the study – in [9] (Neisseria gonorrhoeae, read-out: MIC50) was 0.25 µg/mL (≈ 0.334 µM). In [9] (Neisseria gonorrhoeae, read-out: MIC90), the MIC90 (as a rule, an inhibitory concentration at the 90% level, which refers to growth in some studies and to a panel of isolates in others) was determined as 0.5 µg/mL (≈ 0.668 µM).

For `C=CC1=C(C(=O)O)N2C(=O)[C@@H](NC(=O)/C(=N\OCC(=O)O)c3csc(N)n3)[C@H]2SC1` [cefixime, reference compound], in [9], the MIC50 stood at 0.03 µg/mL (≈ 0.0662 µM) and the MIC90 was 0.06 µg/mL (≈ 0.132 µM).
